Columns and labels:
[1] = tested on: N-acetyl-β-D-glucosaminidase; test: Glycosidase inhibition, N-acetyl-β-D-glucosaminidase; assay type: biochemical, Bovine kidney; details: 1 mg/ml
Experimental: (§1) All enzymes were purchased from Sigma, as were the appropriate p-nitrophenyl substrates. Assays were carried out in microtitre plates. Enzymes were assayed in 0.1 M citric acid/0.2M di-sodium hydrogen phosphate (McIlvaine) buffers at the optimum pH for the enzyme. All assays were carried out at 20° C. For screening assays the incubation assay consisted of 10 μl of enzyme solution, 10 μl of inhibitor solution (made up in water) and 50 μl of the appropriate 5 mM p-nitrophenyl substrate (3.57 mM final conc.) made up in McIlvaine buffer at the optimum pH for the enzyme.
(§2) The reactions were stopped with 0.4M glycine (pH 10.4) during the exponential phase of the reaction, which was determined at the beginning of the assay using blanks with water, which were incubated for a range of time periods to measure the reaction rate using 5 mM substrate solution. Endpoint absorbances were read at 405 nm with a Biorad microtitre plate reader (Benchmark). Water was substituted for the inhibitors in the blanks.

[2] = target: rabbit gut mucosa α-D-glucosidase; test: Inhibition of rabbit gut mucosa α-D-glucosidase; assay type: biochemical
[3] = Treatment of murine HSV-1 infection: body weight; assay type: in vivo, BALB/c mice
Naringinase = test: Glycosidase inhibition, Naringinase; assay type: biochemical, Penecillium decumbens; details: 1 mg/ml
Experimental: as §1, §2

α-D-glucosidase = test: Glycosidase inhibition, α-D-glucosidase (Bacillus); assay type: biochemical, Bacillus stearothermophilus; details: 1 mg/ml
Experimental: as §1, §2

[4] = Group 1: 15 mg/kg i.p. daily, day 0
[5] = Group 1: 15 mg/kg i.p. daily, day 1
[6] = Group 1: 15 mg/kg i.p. daily, day 2
[7] = Group 1: 15 mg/kg i.p. daily, day 3
[8] = Group 1: 15 mg/kg i.p. daily, day 4
[9] = Group 1: 15 mg/kg i.p. daily, day 5
[10] = Group 1: 15 mg/kg i.p. daily, day 6
[11] = Group 1: 15 mg/kg i.p. daily, day 7
[12] = Group 1: 15 mg/kg i.p. daily, day 8
[13] = Group 1: 15 mg/kg i.p. daily, day −2
[14] = Group 2: 150 mg/kg i.p. daily, day 0
[15] = Group 2: 150 mg/kg i.p. daily, day 1
[16] = Group 2: 150 mg/kg i.p. daily, day 2
[17] = Group 2: 150 mg/kg i.p. daily, day 3
[18] = Group 2: 150 mg/kg i.p. daily, day 4
[19] = Group 2: 150 mg/kg i.p. daily, day 5
[20] = Group 2: 150 mg/kg i.p. daily, day 6
[21] = Group 2: 150 mg/kg i.p. daily, day 7
[22] = Group 2: 150 mg/kg i.p. daily, day 8
[23] = Group 2: 150 mg/kg i.p. daily, day −2

For `OC[C@@H]1[C@@H](O)[C@H](O)[C@H]2[C@H](O)[C@@H](O)CN21` [casuarine (8), (1R,2R,3R,6S,7S,7aR)-3-(hydroxymethyl)-1,2,6,7-tetrahydroxypyrrolizidine], the “% inhibition N-acetyl-β-gluc” value [1] was 14%, the IC50 [2] was 210 µM and the “Group mean weight” value [3, 4] was 16.7 g. The “Weight (% change)” value [3, 4] was 3.1%, the “Group mean weight” value [3, 5] was 17.1 g and the “Weight (% change)” value [3, 5] was 5.6%. For the same compound, the “Group mean weight” value [3, 6] was 17.1 g, the “Weight (% change)” value [3, 6] was 5.6% and the “Group mean weight” value [3, 7] was 17.6 g. For the same compound, the “Weight (% change)” value [3, 7] was 8.6%, the “Group mean weight” value [3, 8] was 17.4 g and the “Weight (% change)” value [3, 8] was 7.4%. For the same compound, the “Group mean weight” value [3, 9] was 17.6 g, the “Weight (% change)” value [3, 9] was 8.6% and the “Group mean weight” value [3, 10] was 17.7 g. The “Weight (% change)” value [3, 10] was 9.2%, the “Group mean weight” value [3, 11] was 17.4 g and the “Weight (% change)” value [3, 11] was 7.4%. The “Group mean weight” value [3, 12] was 17.7 g, the “Weight (% change)” value [3, 12] was 9.3% and the “Group mean weight” value [3, 13] was 16.2 g. For the same compound, the “Weight (% change)” value [3, 13] was 0%, the “Group mean weight” value [3, 14] was 16 g and the “Weight (% change)” value [3, 14] was 3.2%. For the same compound, the “Group mean weight” value [3, 15] was 16.4 g, the “Weight (% change)” value [3, 15] was 5.8% and the “Group mean weight” value [3, 16] was 16.3 g. The “Weight (% change)” value [3, 16] was 5.2%, the “Group mean weight” value [3, 17] was 16.6 g and the “Weight (% change)” value [3, 17] was 7.1%. The “Group mean weight” value [3, 18] was 16.4 g, the “Weight (% change)” value [3, 18] was 5.8% and the “Group mean weight” value [3, 19] was 16.8 g. The “Weight (% change)” value [3, 19] was 8.4%, the “Group mean weight” value [3, 20] was 17 g and the “Weight (% change)” value [3, 20] was 9.7%. The “Group mean weight” value [3, 21] was 16.7 g, the “Weight (% change)” value [3, 21] was 7.7% and the “Group mean weight” value [3, 22] was 16.8 g. For the same compound, the “Weight (% change)” value [3, 22] was 8.4%, the “Group mean weight” value [3, 23] was 15.5 g and the “Weight (% change)” value [3, 23] was 0%. For the same compound, the “% inhibition Naringinase” value (Naringinase) was −2% and the “% inhibition gluc (Bacillus)” value (α-D-glucosidase) was 86%.
